# Results from patent US11123398B2, “Chemotherapeutic combinations of cationic antimicrobial peptides and chemotherapeutics” (LYTIX BIOPHARMA AS, priority 2014, dated 2021).
# Non-standard residues stand in square brackets, D forms with d. Residues, ends and D or L forms follow the SMILES beside them. Dip = N[C@H](C(=O)O)C(c1ccccc1)c1ccccc1
# What was measured:
# [1] = system: murine A20 B-cell lymphoma; test: Murine A20 B-cell lymphoma tumours in mice, dose levels; type: in vivo; settings: for Mean tumour size at day 1: prior to start of treatment
# Description: The administration took place by intratumoural injection of LTX-315 dissolved in sterile saline.
# The mice were divided into four groups (see Table 8 below for details). The intratumoural treatment was initiated when the tumours had reached the desired size of approximately 5 mm in diameter (minimum of 20 mm^2).
# Three dose levels of LTX-315, 1 mg (Group 1), 0.5 mg (Group 2) and 0.25 mg (Group 3) per injection, were investigated. The volume was 50 μl for all injections. LTX-315 was dissolved in sterile 0.9% NaCl water solution. This vehicle was used as control (Group 4). All four groups received three injections.
# A caliper was used for tumour size measurements and weighing and physical examination were used as health control.
# [2] = system: A375 cells; test: Bright field confocal live cell imaging; type: cell-based, human; settings: LTX-315 at IC-50 value, majority of the cells
# Description: A375 cells were seeded at 10,000 cells/well in a complete media in Nunc Lab-Tec 8-wells chambered covered glass (Sigma) precoated with 25 μg/ml human fibronectin (Sigma) that were allowed to adhere overnight. Cells were washed twice with a serum-free RPMI, treated with peptide dissolved in RPMI and investigated using Bright on a Leica TCS SP5 confocal microscope, with a 63×/1.2 W objective. The microscope was equipped with an incubation chamber with CO2 and temperature control.
# [3] = system: A375 cells; test: Confocal microscopy with fluorescence-labeled peptide (internalization); type: cell-based, human; settings: 3 μM and 1.5 μM, 30-60 min
# Description: Subconfluential A375 cells were seeded at 8,000 cells/well as above, and transfected on the second day using the Lipofectamine LTX with Plus transfection reagents (Invitrogen) following the manufacturer's protocol. The mitochondria were labeled using the pDsRed2-Mito, and the nucleus was labeled using the GFP-Histon2B plasmid (Imaging Platform, University of Tromsø). A day after transfection, cells were washed twice with serum-free RPMI, and treated at different concentration and incubation periods with LTX-315 Pacific Blue or LTX-328 Pacific Blue. […] Control cells were treated with unlabeled LTX-315 and also with serum-free RPMI only. After incubation, cells were fixed with 4% paraformaldehyde in PBS, and the wells were covered with Prolong Gold antifade (Invitrogen). Cells were further analyzed by use of a Leica TCS SP5 confocal microscope, with a […] objective. Pacific Blue, GFP and Ds Red were excited using UV, with 488 and 561 lasers, and fluorescence channels were sequentially detected using the following band passes: UV: 420-480 nm (with attenuation), 488: 501-550 nm and 561: 576-676 nm.
# [4] = system: A375 cells; test: TEM electron microscopy, A375; type: cell-based, human
# Description: A375 cells were seeded at 1×10^5 cells per well in 6-well plates and allowed to grow for three days to optimize membrane structures in the culture, and the media was changed on the second day. Cells were washed twice in serum-free RPMI before being treated with LTX-315 dissolved in serum-free RPMI at 5, 10 and 25 μg/ml, with serum-free RPMI as a negative control. Cells were then washed with PBS twice before fixation for 24 hours in 4° C. with 4% formaldehyde and 1% gluteralaldehyde in a Hepes buffer at pH 7.8. Dehydration and post-fixation protocols included incubation in a 5% buffered tannic acid and incubation in a 1% osmium-reduced ferrocyanide. Ultrathin sections were prepared, and uranyl acetate (5%) and Reynolds's lead citrate were used for staining and contrasting. Samples were examined on a JEOL JEM-1010 transmission electron microscope, and images were taken with an Olympus Morada side-mounted TEM CCD camera (Olympus soft imaging solutions, GmbH, Germany).
# [5] = system: A375 cells; test: Fluorescence measurement of reactive oxygen species (ROS); type: cell-based, human; settings: 15 minutes of incubation; concentration-dependent
# Description: A DCFDA cellular reactive oxygen species detection assay kit was purchased from Abcam®, and A375 cells seeded in a 96-well Costar black clear bottom plate with 20,000 cells per well incubated in 37° C. 16 hours prior to DCFDA assay. Cells were washed with a 100 μL/well of pre-warmed PBS one time, and incubated with 20 μM of DCFDA in a buffer solution supplied with the kit at 37° C. in a cell culture incubator for 45 min, and then washed again with a buffer solution of 100 μL/well. […] The fluorescence intensity was determined at an excitation wavelength of 485 nm and an emission wavelength of 530 nm on a FLUOstar Galaxy plate reader.
# [6] = system: A20 lymphoma; test: LTX-315 with metronomic CY in A20 lymphoma model; type: in vivo, Balb/c mice; settings: LTX-315 alone, 1 mg i.t. once a day for 3 days
# Description: Tumor cells were harvested, washed in RPMI-1640 and injected intradermally (i.d.) into the right side of the abdomen in Balb/c mice (5×10^6 A20 cells per mouse/50 μl RPMI-1640). When animals obtained palpable tumors (20-30 mm^2) animals were injected i.p. with a single dose of CY (day 4) dissolved in saline (2.0 mg CY/500 μl saline). […] Tumor size was measured using an electronic caliper and expressed as the area of an ellipse [(maximum dimension/2)×(minimum dimension/2)×π]. Animals were then euthanized when the product of the perpendicular tumor dimensions reached 130 mm^2 or when tumor ulceration developed.
# [7] = Group 1: 1 mg intratumoural once daily days 1,2,3
# [8] = Group 2: 0.5 mg intratumoural once daily days 1,2,3
# [9] = Group 3: 0.25 mg intratumoural once daily days 1,2,3
smiles,measurement,setting,value
"NCCCC[C@H](NC(=O)[C@@H](NC(=O)[C@H](Cc1c[nH]c2ccccc12)NC(=O)[C@H](CCCCN)NC(=O)[C@H](CCCCN)NC(=O)[C@H](Cc1c[nH]c2ccccc12)NC(=O)[C@H](Cc1c[nH]c2ccccc12)NC(=O)[C@H](CCCCN)NC(=O)[C@@H](N)CCCCN)C(c1ccccc1)c1ccccc1)C(N)=O [LTX-315, K-K-W-W-K-K-W-Dip-K-NH2] (H-KKWWKKW[Dip]K-NH2)",Anti-tumour effect,"[1]; 1 mg and 0.5 mg, first period of the study",strong and rapid anti tumour effect
same,Mean tumour size on day 4,[1]; [7],0 mm^2
same,Mean tumour size on day 9,[1]; [7],3.70 ± 2.40 mm^2
same,Mean tumour size on day 14,[1]; [7],12.43 ± 7.87 mm^2
same,Mean tumour size at day 1,[1]; [7],25.82 ± 0.80 mm^2
same,Free of Tumour at end of Follow-Up,"[1]; Group 1: 1 mg x3, n=7",42.8% (3/7)
same,Relapse of Tumour,"[1]; Group 1: 1 mg x3, n=7",25%
same,Tumour Response: complete response,"[1]; Group 1: 1 mg x3, n=7",57.2% (4/7)
same,Tumour Response: no response,"[1]; Group 1: 1 mg x3, n=7",0%
same,Tumour Response: partial response,"[1]; Group 1: 1 mg x3, n=7",42.8% (3/7)
same,Mean tumour size on day 4,[1]; [8],0 mm^2
same,Mean tumour size on day 9,[1]; [8],11.41 ± 4.69 mm^2
same,Mean tumour size on day 14,[1]; [8],61.08 ± 23.84 mm^2
same,Mean tumour size at day 1,[1]; [8],22.03 ± 0.63 mm^2
same,Free of Tumour at end of Follow-Up,"[1]; Group 2: 0.5 mg x3, n=7",28.57% (2/7)
same,Relapse of Tumour,"[1]; Group 2: 0.5 mg x3, n=7",0% (0/2)
same,Tumour Response: complete response,"[1]; Group 2: 0.5 mg x3, n=7",28.57% (2/7)
same,Tumour Response: no response,"[1]; Group 2: 0.5 mg x3, n=7",0%
same,Tumour Response: partial response,"[1]; Group 2: 0.5 mg x3, n=7",71.42%
same,Anti-tumour effect,"[1]; Group 3, 0.25 mg/dose, first days",a small inhibitory effect is observed during the first days
same,Mean tumour size on day 4,[1]; [9],20.60 ± 5.71 mm^2
same,Mean tumour size on day 9,[1]; [9],68.49 ± 12.74 mm^2
same,Mean tumour size on day 14,[1]; [9],69.42 ± 17.70 mm^2
same,Mean tumour size at day 1,[1]; [9],21.25 ± 0.64 mm^2
same,Free of Tumour at end of Follow-Up,"[1]; Group 3: 0.25 mg x3, n=9",0%
same,Tumour Response: complete response,"[1]; Group 3: 0.25 mg x3, n=9",0% (0/9)
same,Tumour Response: no response,"[1]; Group 3: 0.25 mg x3, n=9",77.77%
same,Tumour Response: partial response,"[1]; Group 3: 0.25 mg x3, n=9",22.22%
same,Adverse events or toxic effects,"[1]; all LTX-315 groups, intratumoural",Except from the wound formation no other adverse events or toxic effects were observed
same,Treated mice with complete tumour response,"[1]; optimal dose, Group 1 (1 mg x3)",3 of 7
same,Time to rounding up and total collapse of the cells,[2],15 to 60 min
same,Internalization of Pacific Blue-labeled peptide,[3],rapidly penetrated the plasma membrane
same,Cells displaying vacuolization (TEM),"[4]; 3.5 μM, 60 minutes",approximately 20%
same,Number of necrotic cells (TEM),"[4]; 3.5 μM, 60 minutes",less than 5%
same,Cells displaying vacuolization (TEM),"[4]; 17 μM, 60 min",4%
same,"Cells with necrotic morphology, loss of plasma membrane integrity (TEM)","[4]; 17 μM, 60 min",approximately 40%
same,ROS generation,[5],Significant amounts of ROS were generated
same,Animals with complete regression of palpable A20 tumors,[6],one of the animals
same,Animals with partial response,[6],remainder of the animals
